Reference: publication PMC467089, “Click estradiol dimers with novel aromatic bridging units: synthesis and anticancer evaluation” (Journal of Enzyme Inhibition and Medicinal Chemistry, 2024)

What was measured:
porcine brain tubulin = target: T1, porcine brain tubulin (Sus scrofa, UniProt P02550+P02554); test: Tubulin polymerisation assay; assay type: biochemical; conditions: 10 μmol/L, Vmax relative to DMSO
T1 construct: purchased Cytoskeleton, Denver, CO; host or cells: porcine brain (tissue-purified)
Method: Tubulin polymerisation assay kit (Cytoskeleton, Denver, CO) was used according to the manufacturer’s instructions. Polymerisation of porcine brain tubulin (>99% purity) was measured using an EnVision Multilabel Plate Reader (PerkinElmer, Waltham, MA) at 37 °C, in the presence of either 10 μmol/L test compounds or DMSO. Maximum polymerisation velocity (Vmax) was calculated from the polymerisation curves. Data visualisation was performed in OriginPro 2018b (b9.5.5.409) software (OriginLab Corporation, Northampton, MA)[10].

[1] = system: A549 (lung adenocarcinoma); test: MTS cytotoxicity assay, A549; assay type: cell-based, human; conditions: Homo sapiens, A549; MTS assay, 72-h incubation, mean ± SD of 3 independent experiments; read-out: IC50 cytotoxic activity A549
Method: (§1) The p53 deficient variant, HCT116p53−/−, was purchased from Horizon Discovery (Cambridge, UK). The daunorubicin-resistant CCRF-CEM cell line CEM-DNR bulk and paclitaxel-resistant K562-TAX sublines were developed in-house by exposing parental cell lines to escalating concentrations of daunorubicin and paclitaxel, respectively. Cells were maintained in the recommended culture medium (Sigma-Aldrich, St. Louis, MO) supplemented with 10% foetal calf serum, 100 U/mL penicillin, and 100 μg/mL streptomycin. The HUVEC line was obtained from PromoCell (Heidelberg, Germany). The cells were cultured in endothelial cell growth medium with SupplementMix for endothelial cells (PromoCell, Heidelberg, Germany). The incubation conditions were a humidified atmosphere of 95% air and 5% CO2 at 37 °C[10]. Cells were seeded in 384-well plates and after overnight incubation treated with compounds. All tested compounds were dissolved in 100% DMSO, and fourfold serial dilutions were performed using an Echo550 liquid handler (Labcyte, San Jose, CA). The experiments were performed in technical duplicates and three biological replicates. Cells were incubated with compounds for 72 h and thereafter 5 μL of MTS reagent was added to each well.

[2] = MTS cytotoxicity assay, BJ; assay type: cell-based; conditions: human, BJ cells (non-tumour skin fibroblasts); MTS assay, 72-h incubation, mean ± SD of 3 independent experiments; read-out: IC50 cytotoxic activity BJ
Method: as §1

U2OS (osteosarcoma) = test: MTS cytotoxicity assay, U2OS; assay type: cell-based, human; conditions: Homo sapiens, U2OS; MTS assay, 72-h incubation, mean ± SD of 3 independent experiments; read-out: IC50 cytotoxic activity U2OS
Method: as §1

[3] = system: K562 (chronic myelogenous leukaemia); test: MTS cytotoxicity assay, K562; assay type: cell-based; conditions: Homo sapiens, K562; MTS assay, 72-h incubation, mean ± SD of 3 independent experiments; read-out: IC50 cytotoxic activity K562
Method: as §1

[4] = MTS cytotoxicity assay, MRC-5; assay type: cell-based; conditions: human, MRC-5 cells (non-tumour fibroblasts); MTS assay, 72-h incubation, mean ± SD of 3 independent experiments; read-out: IC50 cytotoxic activity MRC-5
Method: as §1

[5] = system: HCT116p53−/− (p53 gene null variant of HCT116); test: MTS cytotoxicity assay, HCT116p53−/−; assay type: cell-based; conditions: Homo sapiens, HCT-116; MTS assay, 72-h incubation, mean ± SD of 3 independent experiments; read-out: IC50 cytotoxic activity HCT116p53-
Method: as §1

[6] = system: HCT116 (colorectal adenocarcinoma); test: MTS cytotoxicity assay, HCT116; assay type: cell-based; conditions: Homo sapiens, HCT-116; MTS assay, 72-h incubation, mean ± SD of 3 independent experiments; read-out: IC50 cytotoxic activity HCT116
Method: as §1

[7] = system: CEM-DNR (daunorubicin resistant variant of CCRF-CEM); test: MTS cytotoxicity assay, CEM-DNR; assay type: cell-based, human; conditions: Homo sapiens, CEM-DNR; MTS assay, 72-h incubation, mean ± SD of 3 independent experiments; read-out: IC50 cytotoxic activity CEM-DNR
Method: as §1

[8] = system: K562-TAX (paclitaxel-resistant variant of K562); test: MTS cytotoxicity assay, K562-TAX; assay type: cell-based, human; conditions: Homo sapiens, K562-Tax; MTS assay, 72-h incubation, mean ± SD of 3 independent experiments; read-out: IC50 cytotoxic activity K562-TAX
Method: as §1

T1 sequence (P02550 whole entry): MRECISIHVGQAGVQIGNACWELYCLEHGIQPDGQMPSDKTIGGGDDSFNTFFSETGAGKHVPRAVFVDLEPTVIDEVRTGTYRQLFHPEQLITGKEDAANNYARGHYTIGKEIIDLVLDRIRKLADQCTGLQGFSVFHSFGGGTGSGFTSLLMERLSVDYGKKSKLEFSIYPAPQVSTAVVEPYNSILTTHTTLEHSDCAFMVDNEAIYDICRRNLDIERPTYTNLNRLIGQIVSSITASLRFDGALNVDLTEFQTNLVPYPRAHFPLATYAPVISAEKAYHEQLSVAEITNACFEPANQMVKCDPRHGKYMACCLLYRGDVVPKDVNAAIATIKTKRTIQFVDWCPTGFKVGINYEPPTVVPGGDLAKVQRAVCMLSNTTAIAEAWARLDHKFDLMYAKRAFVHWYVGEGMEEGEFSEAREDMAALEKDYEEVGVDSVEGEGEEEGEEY
T1 sequence (P02554 whole entry): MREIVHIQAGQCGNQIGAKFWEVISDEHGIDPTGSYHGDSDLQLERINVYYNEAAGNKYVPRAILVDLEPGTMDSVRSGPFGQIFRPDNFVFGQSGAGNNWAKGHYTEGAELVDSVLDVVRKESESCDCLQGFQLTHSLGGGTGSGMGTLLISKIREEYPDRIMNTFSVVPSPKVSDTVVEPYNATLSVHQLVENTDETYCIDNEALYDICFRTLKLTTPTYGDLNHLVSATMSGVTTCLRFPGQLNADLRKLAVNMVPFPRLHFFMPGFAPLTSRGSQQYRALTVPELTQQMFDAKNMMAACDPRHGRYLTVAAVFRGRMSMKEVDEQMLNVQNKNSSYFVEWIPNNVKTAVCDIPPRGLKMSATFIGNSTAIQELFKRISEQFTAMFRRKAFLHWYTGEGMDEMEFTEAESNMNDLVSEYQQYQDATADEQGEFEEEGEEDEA

| Structure (SMILES) | inhibitory activity against tubulin polymerisation (in words) (porcine brain tubulin) | IC50 [1] [µM] | IC50 at 72 h [2] [µM] | IC50 (U2OS (osteosarcoma)) [µM] | IC50 [3] [µM] | IC50 at 72 h [4] [µM] | IC50 [5] [µM] | IC50 [6] [µM] | IC50 [7] [µM] | IC50 [8] [µM] |
| --- | --- | --- | --- | --- | --- | --- | --- | --- | --- | --- |
| Cc1cc(C)c(Cn2cc([C@]3(O)CC[C@H]4[C@@H]5CCc6cc(O)ccc6[C@H]5CC[C@@]43C)nn2)c(C)c1Cn1cc([C@]2(O)CC[C@H]3[C@@H]4CCc5cc(O)ccc5[C@H]4CC[C@@]32C)nn1 [ED10, 17,17′-[(2,4,6-Trimethyl-1,3-phenylene)bis(methylene-1H-1,2,3-triazole-1,4-diyl)]di[estra-1,3,5(10)-triene-3,17β-diol]] | inactive |  |  |  |  |  |  |  |  |  |
| C#C[C@]1(O)CC[C@H]2[C@@H]3CCc4cc(O)ccc4[C@H]3CC[C@@]21C [EE, 17α-ethinylestradiol, reference compound] |  | 31.5 ± 4.16 | > 50 | 22.4 ± 5.65 | 8.72 ± 2.17 | > 50 | 33.6 ± 11.9 | 30 ± 6.89 | 23 ± 4.7 | 15.6 ± 6.25 |
| C[C@]12CC[C@@H]3c4ccc(O)cc4CC[C@H]3[C@@H]1CC[C@@]2(O)c1cn(Cc2c(Cl)c(Cl)c(Cl)c(Cn3cc([C@]4(O)CC[C@H]5[C@@H]6CCc7cc(O)ccc7[C@H]6CC[C@@]54C)nn3)c2Cl)nn1 [ED11, 17,17′-[(2,4,5,6-Tetrachloro-1,3-phenylene)bis(methylene-1H-1,2,3-triazole-1,4-diyl)]di[estra-1,3,5(10)-triene-3,17β-diol]] | inactive |  |  |  |  |  |  |  |  |  |
